Results published in patent publication US4025533A, “5-Bromo-5-nitro-2-alkylsubstituted-1,3-dioxane” (Eli Lilly and Company, priority 1976, dated 1977).
Values after ≈ are worked out from the molar mass of the structure shown. Values belong to the molecule of their own block, whether it stands above or below them.

Tests used:
Escherichia coli [1] = assay: conventional tube dilution test (Table I); assay type: cell-based; conditions: 48 h, antibiotic Number 3 medium, two days at 37° C., read-out: Minimum Inhibitory Concentration
Protocol: (§1) The in vitro antimicrobial activities of Compounds A, B and C, 5-bromo-2-ethyl-5-nitro-1,3-dioxane (Compound D), 5-bromo-5-nitro-2-n-propyl-1,3-dioxane (Compound E), and 5-bromo-2-isopropyl-5-nitro-1,3-dioxane (Compound F) were determined concurrently against Pseudomonas aeruginosa, Staphylococcus aureus, Escherichia coli, and Streptococcus faecalis in a conventional tube dilution test. The medium used was antibiotic Number 3 [CFR 436.102(3)] and the concentration of organisms was 10^4 organisms per ml of medium, with each tube being inoculated with 0.1 ml of inoculum. The figures shown in Table I are the lowest concentrations in mcg of active compound/ml of medium where no growth occurred in the medium after two days' incubation at 37° C.

Pseudomonas aeruginosa [2] = assay: conventional tube dilution test (Table I); assay type: cell-based; conditions: 48 h, antibiotic Number 3 medium, two days at 37° C., read-out: Minimum Inhibitory Concentration
Protocol: as §1

Staphylococcus aureus [3] = assay: conventional tube dilution test (Table I); assay type: cell-based; conditions: 48 h, antibiotic Number 3 medium, two days at 37° C., read-out: Minimum Inhibitory Concentration
Protocol: as §1

Streptococcus faecalis [4] = assay: conventional tube dilution test (Table I); assay type: cell-based; conditions: Enterococcus faecalis, 48 h, antibiotic Number 3 medium, two days at 37° C., read-out: Minimum Inhibitory Concentration
Protocol: as §1

Aspergillus niger [5] = assay: agar plate system (Table II); assay type: cell-based; conditions: antibiotic medium 22, 72 hours at 30° C., read-out: Minimum Inhibitory Concentration
Protocol: (§2) The antimicrobial activities of Compounds A, B, C, D, E and F were also determined in an agar plate system. The compounds were added to melted and cooled (50° C.) agar in twofold concentration increments from 50 mcg per ml of agar to 1.56 mcg per ml of agar. Antibiotic medium 1 [CFR 436.102(1)] was used for testing of Pseudomonas aeruginosa, Staphylococcus aureus, Escherichia coli, and Streptococcus faecalis, but antibiotic medium 22 [CFR 436.102(22)] was used for testing of Candida albicans and Aspergillus niger. Organism suspensions containing 10^6 organisms per ml were used as stock suspensions. Sterile cotton swabs were dipped in the suspensions and then streaked across the solidified agar. The figures shown in Table II were the lowest concentrations at which no growth occurred after 72 hours at 30° C. These values were interpreted as the minimum inhibitory concentration (MIC).

Candida albicans [6] = assay: agar plate system (Table II); assay type: cell-based; conditions: antibiotic medium 22, 72 hours at 30° C., read-out: Minimum Inhibitory Concentration
Protocol: as §2

Escherichia coli [7] = assay: agar plate system (Table II); assay type: cell-based; conditions: antibiotic medium 1, 72 hours at 30° C., read-out: Minimum Inhibitory Concentration
Protocol: as §2

Pseudomonas aeruginosa [8] = assay: agar plate system (Table II); assay type: cell-based; conditions: antibiotic medium 1, 72 hours at 30° C., read-out: Minimum Inhibitory Concentration
Protocol: as §2

Staphylococcus aureus [9] = assay: agar plate system (Table II); assay type: cell-based; conditions: antibiotic medium 1, 72 hours at 30° C., read-out: Minimum Inhibitory Concentration
Protocol: as §2

Streptococcus faecalis [10] = assay: agar plate system (Table II); assay type: cell-based; conditions: Enterococcus faecalis, antibiotic medium 1, 72 hours at 30° C., read-out: Minimum Inhibitory Concentration
Protocol: as §2

Propionibacterium acnes = assay: conventional tube dilution test, anaerobic; assay type: cell-based; conditions: Cutibacterium acnes, medium pH 6.9, read-out: minimum inhibitory concentration
Protocol: For example, 5-bromo-2-methyl-5-nitro-1,3-dioxane (Compound C) was tested against Propionibacterium acnes (formerly called Corynebacterium acnes) in a conventional tube dilution test. A simultaneous test was run utilizing 2-bromo-2-nitropropane,1,3-diol (Compound A) and 5-bromo-5-nitro-1,3-dioxane (Compound B) as the antimicrobials.
The test against Propionibacterium acnes were run anaerobically in the following medium:
(§3) Distilled water q.s. -- 1000 ml
The pH of the medium was 6.9

Aspergillus fumigatus = assay: In Vitro Antifungal Activity, agar plates (Table III); assay type: cell-based; conditions: 72 h, three days at 25° C., pH 5.7, read-out: Minimum Inhibitory Concentration
Protocol: (§4) Compounds A, B, and C were tested further to determine antifungal activity. The compounds were added to melted and cooled (50° C.) agar to obtain concentrations of 100, 50, 25, 12.5, 6.25 and 0.0 mcg per ml of agar. After the agar solidified, sterile cotton swabs were dipped in stock suspensions of the organisms (10^6 organisms per ml of physiological saline) and then streaked across the agar. After three days' incubation at 25° C., concentrations which prevented growth were recorded as the minimal inhibitory concentration. The composition of the medium used in this study was as follows:
(§5) Calcium carbonate -- 0.5 g
(§6) V-8 juice filtrate -- 200.0 ml
as §3
(§7) The pH was adjusted to 5.7.

Aspergillus terreus = assay: as above; assay type: cell-based; conditions: 72 h, three days at 25° C., pH 5.7, read-out: Minimum Inhibitory Concentration
Protocol: as §4, §5, §6, §3, §7

Botrytis cinerea = assay: as above; assay type: cell-based; conditions: 72 h, three days at 25° C., pH 5.7, read-out: Minimum Inhibitory Concentration
Protocol: as §4, §5, §6, §3, §7

Chaetomium globosum = assay: as above; assay type: cell-based; conditions: 72 h, three days at 25° C., pH 5.7, read-out: Minimum Inhibitory Concentration
Protocol: as §4, §5, §6, §3, §7

Colletotrichum phomoides = assay: as above; assay type: cell-based; conditions: 72 h, three days at 25° C., pH 5.7, read-out: Minimum Inhibitory Concentration
Protocol: as §4, §5, §6, §3, §7

[11] = test system: Fusarium oxysporum cubense; assay: as above; assay type: cell-based; conditions: 72 h, three days at 25° C., pH 5.7, read-out: Minimum Inhibitory Concentration
Protocol: as §4, §5, §6, §3, §7

Microsporum gypseum = assay: as above; assay type: cell-based; conditions: Nannizzia gypsea, 72 h, three days at 25° C., pH 5.7, read-out: Minimum Inhibitory Concentration
Protocol: as §4, §5, §6, §3, §7

Penicillium notatum = assay: as above; assay type: cell-based; conditions: Penicillium chrysogenum, 72 h, three days at 25° C., pH 5.7, read-out: Minimum Inhibitory Concentration
Protocol: as §4, §5, §6, §3, §7

Rhodotorula glutinis = assay: as above; assay type: cell-based; conditions: 72 h, three days at 25° C., pH 5.7, read-out: Minimum Inhibitory Concentration
Protocol: as §4, §5, §6, §3, §7

[12] = test system: Saccharomyces pastorianus; assay: as above; assay type: cell-based; conditions: 72 h, three days at 25° C., pH 5.7, read-out: Minimum Inhibitory Concentration
Protocol: as §4, §5, §6, §3, §7

Aspergillus niger [13] = assay: in vitro agar plate determination (Table VII); assay type: cell-based; conditions: agar plates at 10, 25 and 50 mcg. per ml., 24 hours, read-out: Minimum Inhibitory Concentration
Protocol: (§8) The antimicrobial activities of […] (Compound G) were determined concurrently with 5-bromo-2-methyl-5-nitro-1,3-dioxane (Compound C) and 5-bromo-5-nitro-1,3-dioxane (Compound B) against the same six organisms shown in Table II. […] The tests were in vitro determinations utilizing agar plates containing the active compound at 10, 25 and 50 mcg. per ml. of agar. The organisms, at concentrations of 10^6 organisms per milliliter, were streaked on the solidified agar. The plates were incubated for 24 hours and the presence or absence of growth noted. The minimum inhibitory concentration (MIC) was determined as the lowest active compound concentration in the agar where no growth occurred.

Candida albicans [14] = assay: in vitro agar plate determination (Table VII); assay type: cell-based; conditions: agar plates at 10, 25 and 50 mcg. per ml., 24 hours, read-out: Minimum Inhibitory Concentration
Protocol: as §8

Escherichia coli [15] = assay: in vitro agar plate determination (Table VII); assay type: cell-based; conditions: agar plates at 10, 25 and 50 mcg. per ml., 24 hours, read-out: Minimum Inhibitory Concentration
Protocol: as §8

Pseudomonas aeruginosa [16] = assay: in vitro agar plate determination (Table VII); assay type: cell-based; conditions: agar plates at 10, 25 and 50 mcg. per ml., 24 hours, read-out: Minimum Inhibitory Concentration
Protocol: as §8

Staphylococcus aureus [17] = assay: in vitro agar plate determination (Table VII); assay type: cell-based; conditions: agar plates at 10, 25 and 50 mcg. per ml., 24 hours, read-out: Minimum Inhibitory Concentration
Protocol: as §8

Streptococcus faecalis [18] = assay: in vitro agar plate determination (Table VII); assay type: cell-based; conditions: Enterococcus faecalis; agar plates at 10, 25 and 50 mcg. per ml., 24 hours; read-out: Minimum Inhibitory Concentration
Protocol: as §8

human skin [19] = assay: Human Repeated Insult Patch Test, induction series (irritation); conditions: in vivo
Text: The following protocol was followed in testing each compound.
Two-hundred subjects were employed in each investigation.

human skin [20] = conditions: in vivo
Text: Two-hundred subjects were employed in each investigation. The repeated insult technique was used in the patch test. A different group of subjects were utilized for each evaluation.
The technique used for the patch test called for a series of 9 induction patches of each test material to be placed on each of the subjects. The series was followed two weeks later by a single "challenge" patch of each test material to detect skin sensitization.
The series of nine induction patches was applied on Monday, Wednesday and Thursday and allowed to contact the skin for 24 hours, after which time they were removed and the skin sites graded for irritation. Thursday's patches were placed immediately after removal and grading of Wednesday's applications. After the ninth induction patches had been placed, a non-patching period of 2 weeks elapsed before the challenge patches were applied to detect sensitization reactions. For this 24-hour patch, a new skin site was used. This site was invariably chosen adjacent to an induction site; i.e., one where repeated applications had been made during the series of nine induction patches. The challenge applications were graded at 24 and 72 hours after application.
The skin applications for each material were made using oval-shaped adhesive patches (1" × 11/4") with circular gauze centers. The gauze centers were coated with approximately 0.03 ml. of the respective test material just prior to application.
The scoring criteria used for skin irritation reactions and in evaluating the sensitization evidenced on the challenge application follows:
Four separate formulations of each compound were tested along with two formulations of parabens.
A reading of 5 or more on the 8-point scale was deemed to be indicative of the development of skin sensitization to the test compound.

[21] = prior art; cited from earlier work
human skin [22] = conditions: prior art; cited from earlier work
[23] = chemical stability towards pH / alkali; assay type: physicochemical; conditions: pH 5-9

- MIC (Escherichia coli [1]): 25 µg/mL (≈ 98.4 µM)
- MIC (Pseudomonas aeruginosa [2]): 50 µg/mL (≈ 197 µM)
- MIC (Staphylococcus aureus [3]): 50 µg/mL (≈ 197 µM)
- MIC (Streptococcus faecalis [4]): 25 µg/mL (≈ 98.4 µM)
- MIC (Aspergillus niger [5]): 6.25 µg/mL (≈ 24.6 µM)
- MIC (Candida albicans [6]): 3.1 µg/mL (≈ 12.2 µM)
- MIC (Escherichia coli [7]): 12.5 µg/mL (≈ 49.2 µM)
- MIC (Pseudomonas aeruginosa [8]): 25 µg/mL (≈ 98.4 µM)
- MIC (Staphylococcus aureus [9]): 12.5 µg/mL (≈ 49.2 µM)
- MIC (Streptococcus faecalis [10]): 12.5 µg/mL (≈ 49.2 µM)
Structure (SMILES): CCCC1OCC(Br)([N+](=O)[O-])CO1 (stereo not drawn) [Compound E, 5-bromo-5-nitro-2-n-propyl-1,3-dioxane]

- MIC (Escherichia coli [1]): 25 µg/mL (≈ 98.4 µM)
- MIC (Pseudomonas aeruginosa [2]): 50 µg/mL (≈ 197 µM)
- MIC (Staphylococcus aureus [3]): 25 µg/mL (≈ 98.4 µM)
- MIC (Streptococcus faecalis [4]): 25 µg/mL (≈ 98.4 µM)
- MIC (Aspergillus niger [5]): 12.5 µg/mL (≈ 49.2 µM)
- MIC (Candida albicans [6]): 6.25 µg/mL (≈ 24.6 µM)
- MIC (Escherichia coli [7]): 12.5 µg/mL (≈ 49.2 µM)
- MIC (Pseudomonas aeruginosa [8]): 25 µg/mL (≈ 98.4 µM)
- MIC (Staphylococcus aureus [9]): 12.5 µg/mL (≈ 49.2 µM)
- MIC (Streptococcus faecalis [10]): 25 µg/mL (≈ 98.4 µM)
Structure (SMILES): CC(C)C1OCC(Br)([N+](=O)[O-])CO1 (stereo not drawn) [Compound F, 5-bromo-2-isopropyl-5-nitro-1,3-dioxane]

- MIC (Propionibacterium acnes): 6.25 µg/mL (≈ 29.5 µM)
- MIC (Escherichia coli [1]): 25 µg/mL (≈ 118 µM)
- MIC (Pseudomonas aeruginosa [2]): 25 µg/mL (≈ 118 µM)
- MIC (Staphylococcus aureus [3]): 25 µg/mL (≈ 118 µM)
- MIC (Streptococcus faecalis [4]): 25 µg/mL (≈ 118 µM)
- MIC (Aspergillus niger [5]): 25 µg/mL (≈ 118 µM)
- MIC (Candida albicans [6]): 12.5 µg/mL (≈ 59 µM)
- MIC (Escherichia coli [7]): 6.25 µg/mL (≈ 29.5 µM)
- MIC (Pseudomonas aeruginosa [8]): 12.5 µg/mL (≈ 59 µM)
- MIC (Staphylococcus aureus [9]): 12.5 µg/mL (≈ 59 µM)
- MIC (Streptococcus faecalis [10]): 12.5 µg/mL (≈ 59 µM)
- MIC (Aspergillus fumigatus): < 6.25 µg/mL
- MIC (Aspergillus terreus): 25 µg/mL (≈ 118 µM)
- MIC (Botrytis cinerea): 50 µg/mL (≈ 236 µM)
- MIC (Chaetomium globosum): < 6.25 µg/mL
- MIC (Colletotrichum phomoides): 100 µg/mL (≈ 472 µM)
- MIC [11]: < 6.25 µg/mL
- MIC (Microsporum gypseum): 50 µg/mL (≈ 236 µM)
- MIC (Penicillium notatum): 25 µg/mL (≈ 118 µM)
- MIC (Rhodotorula glutinis): 50 µg/mL (≈ 236 µM)
- MIC [12]: 100 µg/mL (≈ 472 µM)
- MIC (Aspergillus niger [13]): 50 µg/mL (≈ 236 µM)
- MIC (Candida albicans [14]): 25 µg/mL (≈ 118 µM)
- MIC (Escherichia coli [15]): < 10 µg/mL
- MIC (Pseudomonas aeruginosa [16]): 25 µg/mL (≈ 118 µM)
- MIC (Staphylococcus aureus [17]): 25 µg/mL (≈ 118 µM)
- MIC (Streptococcus faecalis [18]): < 10 µg/mL
- subjects evaluated as being sensitive on the challenge test (human skin [20]): 11 subjects
Structure (SMILES): O=[N+]([O-])C1(Br)COCOC1 [Compound B, 5-bromo-5-nitro-1,3-dioxane, reference compound]
- irritation readings compared with the 2-methyl derivative (human skin [19]): more severe
- sensitizing effect (human skin [20]): marked sensitizing effect
- chemical stability towards alkali [21]: does possess chemical stability towards alkali
- irritation and sensitization in human subjects (human skin [22]): induces irritation and sensitization in a significant number of human subjects

- MIC (Escherichia coli [1]): 25 µg/mL (≈ 104 µM)
- MIC (Pseudomonas aeruginosa [2]): 50 µg/mL (≈ 208 µM)
- MIC (Staphylococcus aureus [3]): 25 µg/mL (≈ 104 µM)
- MIC (Streptococcus faecalis [4]): 25 µg/mL (≈ 104 µM)
- MIC (Aspergillus niger [5]): 12.5 µg/mL (≈ 52.1 µM)
- MIC (Candida albicans [6]): 6.25 µg/mL (≈ 26 µM)
- MIC (Escherichia coli [7]): 12.5 µg/mL (≈ 52.1 µM)
- MIC (Pseudomonas aeruginosa [8]): 25 µg/mL (≈ 104 µM)
- MIC (Staphylococcus aureus [9]): 12.5 µg/mL (≈ 52.1 µM)
- MIC (Streptococcus faecalis [10]): 12.5 µg/mL (≈ 52.1 µM)
- chemical stability at pH [23]: chemically stable at pH's from 5-9
Structure (SMILES): CCC1OCC(Br)([N+](=O)[O-])CO1 (stereo not drawn) [Compound D, 5-bromo-2-ethyl-5-nitro-1,3-dioxane]
